# PMC11581908 (Nature chemical biology, 2024)
# How the values were obtained:
# FBXO22 = biological target: T1, FBXO22 (Homo sapiens, UniProt Q8NEZ5); experiment: cysteine-directed ABPP in cells; format: cell-based
# T1 sequence (Q8NEZ5 1-403): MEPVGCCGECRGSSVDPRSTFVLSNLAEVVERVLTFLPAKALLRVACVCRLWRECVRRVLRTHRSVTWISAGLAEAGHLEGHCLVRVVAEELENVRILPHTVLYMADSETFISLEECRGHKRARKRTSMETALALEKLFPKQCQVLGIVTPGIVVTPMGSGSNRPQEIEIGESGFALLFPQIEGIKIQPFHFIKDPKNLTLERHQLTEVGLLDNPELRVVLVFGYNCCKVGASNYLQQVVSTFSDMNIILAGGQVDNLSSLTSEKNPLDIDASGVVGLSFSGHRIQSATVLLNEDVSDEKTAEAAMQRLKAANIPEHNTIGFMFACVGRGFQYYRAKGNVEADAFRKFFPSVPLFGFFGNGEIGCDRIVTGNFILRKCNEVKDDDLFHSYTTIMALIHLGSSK
# FKBP12 = FKBP12 (Homo sapiens, UniProt P62942); format: cell-based
# Chain of FKBP12 (P62942 2-108): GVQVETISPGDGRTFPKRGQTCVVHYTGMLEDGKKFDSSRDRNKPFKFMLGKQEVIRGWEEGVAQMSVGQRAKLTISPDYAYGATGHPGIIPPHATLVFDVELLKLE
compound,measurement,setting,value
"CCC(C)(C)C(=O)C(=O)N1CCCC[C@H]1C(=O)O[C@H](CCc1ccc(OC)c(OC)c1)c1cccc(OCC(=O)NCCCOCCOCCOCCCN(C(=O)CCl)C(C(=O)NCc2ccccc2)c2nc3ccccc3s2)c1 (some centres unmarked) [compound 1, 22-SLF]",% of C228 blocked at 2 μM,FBXO22,~ 20 % of C228 blocked at 2 μM
same,EC50,FKBP12,1.96 µM
